From US12195557B2, “Optimised compounds” (AXELIA ONCOLOGY PTY LTD, priority 2017, dated 2025)
“Also recorded” adds a separate entry of the source.

Legend:
in vitro [1] = conditions: dog, hepatocytes
in vitro [2] = conditions: dog, dog plasma
[3] = Dynamic light scattering (DLS) particle size; type: physicochemical; conditions: within 2 hours of sample preparation
Protocol: INNA-011 and INNA-006 form micelle-type aggregates in both aqueous and organic solutions. The size distribution and polydispersity of particles of INNA-006 and INNA-011 were determined by dynamic light scattering (DLS) and size exclusion chromatography (University of Melbourne).
As the concentration of INNA-006 is increased, material with a particle size centered on a radius of ˜7 nm accumulates within 2 hours of the sample preparation as measured by DLS. This accumulation starts at a concentration of ˜16 μM, (0.02 mg/ml, represents the 0.16 nmole/10 μl curve) and is clearly discernable at 125 μM (0.17 mg/ml, represents the 1.25 nmole/10 μl curve) and above.
At the concentrations of 2 mM to […] particle sizes (7.4-7.7 nm) were larger than that observed with INNA-006 and additional species outside of this main sequence were more ordered and less dominant.

[4] = human plasma, 37° C., 4 h time course
TLR-2 = assay: TLR panel, NF-κB inducible SEAP reporter in HEK293 cells: TLR-2; type: cell-based, human and mouse
Protocol: INNA-006 was assessed for its ability to activate a range of other TLR pattern recognition receptors. These assessments were conducted using both human and mouse TLR panels. These assays detect a secreted embryonic alkaline phosphatase (SEAP) reporter under the control of a promoter which is inducible by NF-κB activation in HEK293 cells. The secreted embryonic alkaline phosphatase (SEAP) reporter is under the control of a promoter inducible by the transcription factor NF-κB. This reporter gene allows the monitoring of signaling through the TLR, based on the activation of NF-κB. In a 96-well plate (200 μL total volume) containing the appropriate cells (50,000-75,000 cells/well), 20 μL of the test article or the positive control ligand is added to the wells. The media added to the wells is designed for the detection of NF-κB induced SEAP expression. After a 16-24 hr incubation the optical density (OD) is read at 650 nm on a Molecular Devices SpectraMax 340PC absorbance detector. • hTLR2: HKLM (heat-killed Listeria monocytogenes) at 1×10^8 cells/mL • hTLR3: Poly(I:C) HMW at 1 μg/mL • hTLR4: E. coli K12 LPS at 100 ng/mL • hTLR5: S. typhimurium flagellin at 100 ng/mL • hTLR7: CL307 at 1 μg/mL • hTLR8: CL075 at 1 μg/mL • hTLR9: CpG ODN2006 at 1 μg/mL.

in vitro [5] = conditions: rat, hepatocytes

CCC(=O)OCC(CSCC(N)C(=O)NC(CO)C(=O)NCCOCC(=O)NCC(N)=O)OC(=O)CC (stereo not drawn) [INNA-006, Pam2Cys-Ser-PEG]
half-life at 0.5 μM (in vitro [1]): > 6.25 h
hepatocyte CLint at 0.5 μM (in vitro [1]): < 2 µL/min/1e6 cells
half-life (in vitro [2]): 8.9 h
concentration at which accumulation of ~7 nm particles starts ([3]; DLS): ~16 µM
particle size (radius) by DLS ([3]; INNA-011 at 2 mM to 8 pM in PBS): around 7 nm
plasma half-life [4]: could not be calculated due to insufficient degradation
TLR-2 activation (TLR-2): specific TLR-2 activation; also recorded: able to activate
half-life at 0.5 μM (in vitro [5]): > 6.25 h
hepatocyte CLint at 0.5 μM (in vitro [5]): < 2 µL/min/1e6 cells
